This is an account of results in patent US12667569B2, “Use of sepiapterin and metabolites thereof to treat radiation exposure” (PTC Therapeutics MP, Inc., priority 2019, dated 2026).

Assay [1] concerns C57L/J mice. The assay is described as follows: Survival over 180 days post IR (Kaplan Meyer). The note with it: 11.5 Gy total thoracic dose, 1 mg/kg/day SP for 6 days. The assay is classed as in vivo. How it is done: (§1) Equal numbers of male and female mice were distributed to each group. While under ketamine/xylazine anesthesia (100 mg/kg and 10 mg/kg, respectively) mice received 5 Gy total body irradiation (TBI), immediately followed by a top-up dose of 6.5 Gy to the thorax, for a total thoracic dose of 11.5 Gy, using a Varian 21 EX LINAC (Palo Alto, CA). Twenty-four hours post-irradiation, mice were treated once daily for 6 days by oral gavage with 1 mg/kg sepiapterin or 5 mg/kg BH4 dissolved in water (FIG. 1).
To determine whether the improved cardiopulmonary function impacted overall survival the mice were followed over 180 days post IR.

For assay [2], the system named is C57L/J mice. Description: Echocardiography: contractile reserve (isoproterenol response), myocardial performance index, IRT after irradiation. The class given is in vivo. How it is done: Both male and female C57L/J wild-type 6-8-week-old mice were purchased from Jackson Laboratory (Bar Harbor, ME). The mice were housed with a 12:12 h light-dark schedule and access to water and food ad libitum. The experiments were conducted under the guidelines of laboratory animals for biomedical research published by the National Institutes of Health (rev. 2011). The study protocol was approved by the Institutional Animal Care and Use Committee of Virginia Commonwealth University.
as §1
All mice underwent transthoracic echocardiography at baseline (before irradiation (IR)), at 8, 30, 60, 90 and 180 days, under light anesthesia (30 mg/kg pentobarbital sodium). Echocardiography was performed with the Vevo770 imaging system (VisualSonics, Toronto, Ontario, Canada) and a 30-MHz probe. The heart was visualized in B-mode from parasternal short-axis and apical views. The left ventricular (LV) end-diastolic diameter (EDD), LV end-systolic diameter (ESD), LV anterior wall diastolic thickness (AWDT), and LV posterior wall diastolic thickness (PWDT), LV anterior wall systolic thickness (AWST), and LV posterior wall systolic thickness (PWST) were measured at M-mode, according to the American Society of Echocardiography recommendations. LV ejection fraction (EF), and LV mass were calculated from the measurements of wall thickness and chamber diameters. The LVEF was derived using the Teicholz formula (LVEF=[LVEDD3−LVESD3]/LVEDD3), as previously described. The transmitral LV outflow tract Doppler spectra (E, A, ET) was recorded from an apical four-chamber view, and the myocardial performance index (MPI) was calculated as the […] isovolumetric contraction time (ICT) and isovolumetric relaxation time (IRT) divided by the ejection time (ED. The investigators performing and reading the echocardiograms were blinded to the treatment allocation. A beta-adrenergic agonist, isoproterenol (Sigma Aldrich, St. Louis, MO, USA) 20 ng/mouse, was used to assess cardiac contractility in irradiated mice without SP treatment. Cardiac contractility (contractile reserve) was expressed as percentage change in LVEF measured at rest (LVEFr) and 3 min after isoproterenol injection (LVEFi) and calculated as [(LVEFi−LVEFr)/LVEFr]*100. Measurements of the contractile reserve were taken at baseline, 8, 30, 60, 90 and 180 days after IR. Echocardiogram assessment was performed by an operator blinded to treatment allocation.

In assay [3] the test system is cytokines' mRNAs in lung tissue. Description: Cytokine mRNA expression (qPCR) in lung tissue after irradiation. The note with it: 16 weeks after IR, mean±SD, vehicle 4.25±0.537. The class given is in vivo, mice. A general note: Real-time PCR tracks product formation cycle by cycle.
Assay [4] has the same test system. The assay is described as above. The class given is in vivo, mice. How it is done: (§2) Total RNA was isolated from the lung and heart tissue samples following the manufacturers instructions with the RNeasy Mini kit (Qiagen). The RNA concentration was evaluated by using a NanoDrop ND-1000 spectrophotometer (Thermo Scientific). RNA purity was assessed by the ratios of A260/A280 and A260/A230. RNA integrity was evaluated by the ratio of 28S/18S ribosomal RNA (rRNA) and the RNA integrity number (RIN) using an Agilent 2100 BioAnalyzer (Agilent Technologies). cDNA synthesis and genomic DNA elimination were performed by using RT2 First Strand Kit (QIAGEN). Samples were amplified using RT2 SYBR® Green qPCR Mastermix probes from QIAGEN on the QuantStudio 5 RT-PCR machine (Applied Biosystems). The following RT2 qPCR Primer Assays (QIAGEN) were used: Mouse Actin-β (NM_007393), Mouse Bmp2 (NM_007553), Mouse Ccl2 (NM_011333), Mouse Ctgf (NM_010217), Mouse IL-1β (NM_008361), Mouse IL-6 (NM_031168), Mouse IL-10 (NM_010548), Mouse IL-17α (NM_010552), Mouse Runx2 (NM_001145920), Mouse Spp1 (NM_001204201), Mouse TGF-β1 (NM_011577), Mouse Trim72 (NM_001079932).

For assay [5], the system named is C57L/J mice. The assay is described as follows: Assessment of lung injury by breathing rate (MouseOx) after irradiation. The class given is in vivo. The note with it: irradiated mice, 1 mg/kg/day SP for 6 days. How it is done:
as §1
The breathing rate was measured every other week starting in week 6 using the Mouse Ox system (STARR Life Sciences Corp., Allison Park, PA). The animal was placed under ketamine/xylazine anesthesia and shaved in the area of analysis. 10 min post injection the animal was placed in a supine position with the sensor clipped to the upper thigh. The breathing rate was recorded for 3 min. The breathing rate was calculated using an algorithm in the Mouse Ox software.

The test system of assay [6] is cytokines' mRNAs in heart tissue. The assay is described as follows: Cytokine mRNA expression (qPCR) in heart tissue after irradiation. The class given is in vivo, mice. The note with it: 8 days, 30 days, 16 weeks after IR, SP vs vehicle. How it is done: as §2

Entries after “also recorded” stand apart in the source; their conditions may differ.

`C[C@H](O)C(=O)C1=Nc2c([nH]c(N)nc2=O)NC1` [SP, Sepiapterin]: the “mice alive at 180 days” value in the assay on C57L/J mice [1] (untreated 40%) is reported as 71%. Also, the overall survival result with C57L/J mice [1] (vs irradiated without treatment, 1 mg/kg/day) was “significantly delayed and overall improved survival; also recorded: increased survival”. For the same compound, the “systolic and diastolic function response, evaluated by sex” value in the assay on C57L/J mice [2] (irradiated male vs female mice, 1 mg/kg SP) is recorded as “no significant differences in heart function response”. Further, the “mitigation of loss in contractile reserve, evaluated by sex” value in the assay with C57L/J mice [2] (irradiated male vs female mice, SP 1 mg/kg) is listed as “equally effective in mitigating this loss in contractile reserve”. Moreover, the “contractile reserve (response to isoproterenol)” value in the assay on C57L/J mice [2] (irradiated mice (5 Gy TBI + 6.5 Gy thorax), SP 1 mg/kg oral once daily 6 days from 24 h post-IR, up to 180 days, vs vehicle) is “restore the response to beta-adrenergic stimulation by isoproterenol; also recorded: enhanced contractile reserve; also recorded: blunted the drop in the contractile reserve at all the time points”. Further, in the assay on C57L/J mice [2] (irradiated mice, SP 1 mg/kg oral once daily 6 days from 24 h post-IR, up to 180 days, vs vehicle), the “myocardial performance index (Tei index) and isovolumetric relaxation time (IRT); systolic and diastolic function” value is “ameliorating the progressive increase in myocardial performance index and IRT; also recorded: improved systolic and diastolic function; also recorded: blunted the increase in the Tei index and IRT at all the time points”. Moreover, the “relative expression of Spp2 mRNA” value in assay [3] stood at 2.38±0.211. Further, the “relative expression of TGF-β1 mRNA” value in assay [4] (16 weeks after IR, mean±SD, vehicle 3.26±0.339) turned out to be 1.53±0.367. For the same compound, the “relative expression of IL-17A mRNA” value in assay [4] (16 weeks after IR, mean±SD, vehicle 4.5±0.824) worked out at 2.12±1.173; in assay [4] (8 days after IR, mean±SD, vehicle 9.19±2.783), 2.71±1.874; in assay [4] (30 days after IR, mean±SD, vehicle 5.65±2.263), 1.49±0.379. Also, the “relative expression of IL-6 mRNA” value in assay [4] (16 weeks after IR, mean±SD, vehicle 28.85±5.987) came out at 17.05±4.12; in assay [4] (8 days after IR, mean±SD, vehicle 16.88±4.91), 1.36±0.509; in assay [4] (30 days after IR, mean±SD, vehicle 9.09±0.533), 4.96±0.905. For the same compound, the “relative expression of IL-1β mRNA” value is 1.54±0.825 in assay [4] (8 days after IR, relative to non-irradiated control, mean±SD, vehicle 2.9±0.649) and 1.66±0.51 in assay [4] (30 days after IR, mean±SD, vehicle 3.39±0.532). Also, the “relative expression of Ccl2 mRNA” value in assay [4] (30 days after IR, SP vs vehicle) was “no significant difference between Vehicle-treated and SP-treated animal groups”. Further, the “time to development of lung injury” value in the assay on C57L/J mice [5] (vehicle 10 weeks) amounted to 14 weeks. Besides, the “lung function (breathing rate)” value with C57L/J mice [5] (vs vehicle, 1 mg/kg/day) is “significantly reduced impairment of lung function at all points measured; also recorded: decreasing breathing frequency; also recorded: significantly improved pulmonary function at all points measured”. Besides, the “expression of all evaluated cytokines (Bmp2, Ccl2, Ctgf, IL-1β, IL-6, IL-10, IL-17A, IL-33, Runx2, Spp2, TGF-β1, Trim72)” value in assay [6] is “no significant difference in expression between Vehicle-treated and SP-treated groups”.
